Laboratory results reported in patent US20120252796A1, “COMPOUNDS FOR THE TREATMENT OF DYSLIPIDEMIA AND RELATED DISEASES” (priority 2009, published 2012).

Target: PCSK9 (Homo sapiens, UniProt Q8NBP7)
Test: PCSK9-LDLR in vitro Binding Assay (ELISA)
Procedure: The PCSK9-LDLR in vitro Binding Assay is a quantitative solid phase binding assay between PCSK9 and recombinant LDLR. Plates were pre-coated with a recombinant LDLR-AB domain, which binds PCSK9. Test compound at different concentration was added to the PCSK9 and added to LDLR immobilized on the wells. The amount of bound PCSK9 is measured by binding it with biotinylated anti-His-tag monoclonal antibody, followed by binding with horseradish peroxidase conjugated streptavidin substrate. The color was quantified by ELISA reader at […] which reflects the relative amount of PCSK9 that binds to LDLR in presence and absence of the inhibitor. EC50 values were calculated by nonlinear regression analysis using graph pad prism software. Each concentration point represents values in duplicates.

PCSK9, sequence (Q8NBP7 153-692): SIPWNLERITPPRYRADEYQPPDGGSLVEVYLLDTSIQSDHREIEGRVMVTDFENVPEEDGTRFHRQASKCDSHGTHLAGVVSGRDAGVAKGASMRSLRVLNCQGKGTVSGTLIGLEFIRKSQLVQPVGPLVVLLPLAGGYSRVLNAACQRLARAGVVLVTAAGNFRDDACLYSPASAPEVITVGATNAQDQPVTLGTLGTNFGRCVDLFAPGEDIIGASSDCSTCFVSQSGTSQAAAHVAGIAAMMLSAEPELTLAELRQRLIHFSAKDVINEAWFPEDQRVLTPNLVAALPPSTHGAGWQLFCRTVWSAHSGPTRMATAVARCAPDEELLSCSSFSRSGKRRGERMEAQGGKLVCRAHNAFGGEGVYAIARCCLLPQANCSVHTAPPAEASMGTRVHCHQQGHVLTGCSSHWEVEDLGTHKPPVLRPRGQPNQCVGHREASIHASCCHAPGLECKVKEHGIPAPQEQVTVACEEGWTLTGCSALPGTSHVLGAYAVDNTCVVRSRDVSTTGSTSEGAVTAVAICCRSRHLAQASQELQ
PCSK9, sequence (Q8NBP7 31-152 partner limits assumed): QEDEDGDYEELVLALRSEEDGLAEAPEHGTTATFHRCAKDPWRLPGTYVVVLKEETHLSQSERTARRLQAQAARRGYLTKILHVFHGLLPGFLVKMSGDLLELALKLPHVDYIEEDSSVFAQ

| Compound | % Inhibition PCSK9 (Concentration 100 μM) | % Inhibition PCSK9 (Concentration 100 μM, 100 µM) | % Inhibition PCSK9 (Concentration 10 μM) | further results |
| --- | --- | --- | --- | --- |
| Cc1oc(-c2ccccc2)nc1CC1COC(C)(C(=O)N2CCSCC2)OC1 (stereo not drawn) [Example 16, (2-methyl-5-c-((5-methyl-2-phenyloxazol-4-yl)methyl)-1,3-dioxan-2-yl)(thiomorpholino)methanone] | 12% | – | – | – |
| Cc1ccc(-c2nc(CC3COC(C)(C(=O)N4CCOCC4)OC3)c(C)o2)s1 (stereo not drawn) [Example 77] | – | 16% | – | % Inhibition PCSK9 (Concentration 10 μM, 10 µM): 14% |
| Cc1oc(-c2ccccc2)nc1CCC1COC(C)(C(=O)N2CCS(=O)(=O)CC2)OC1 (stereo not drawn) [Example 46, (1,1-dioxidothiomorpholino)(2-methyl-5-c-(2-(5-methyl-2-phenyloxazol-4-yl)ethyl)-1,3-dioxan-2-yl)methanone] | 18% | – | 12% | – |
| Cc1oc(-c2ccccc2)nc1CCC1COC(C)(C(=O)NO)OC1 (stereo not drawn) [Example 35, N-hydroxy-2-methyl-5-c-(2-(5-methyl-2-phenyloxazol-4-yl)ethyl)-1,3-dioxane-2-carboxamide] | – | 19% | 19% | % Inhibition PCSK9 (Concentration 1 μM, 1 µM): 18% |
| (2-methyl-5-c-(2-(5-methyl-2-phenyloxazol-4-yl)ethyl)-1,3-dioxan-2-yl)(piperidin-1-yl)methanone [Example 44] | – | – | – | % Inhibition PCSK9 (10 µM): 14%; % Inhibition PCSK9 (100 µM): 25% |
| Cc1oc(-c2ccccc2)nc1CC1COC(C)(C(=O)N2CCCCC2)OC1 (stereo not drawn) [Example 15, (2-methyl-5-c-((5-methyl-2-phenyloxazol-4-yl)methyl)-1,3-dioxan-2-yl)(piperidin-1-yl)methanone] | 4% | – | 11% | – |
| Cc1ccc(-c2nc(CC3COC(C)(C(=O)NOCc4ccccc4)OC3)c(C)o2)cc1 (stereo not drawn) [Example 56, N-benzyloxy-2-methyl-5-((5-methyl-2-(p-tolyl)oxazol-4-yl)methyl)-1,3-dioxane-2-carboxamide] | – | – | – | inhibition at 5 µM (Concentration 5 μM): 6%; inhibition at 10 µM (Concentration 10 μM): 17% |
| Cc1ccc(-c2nc(CC3COC(C)(C(=O)NO)OC3)c(C)o2)cc1 (stereo not drawn) [Example 61, N-hydroxy-2-methyl-5-t-((5-methyl-2-(p-tolyl)oxazol-4-yl)methyl)-1,3-dioxane-2-carboxamide] | – | 32% | – | % Inhibition PCSK9 (Concentration 10 μM, 10 µM): 21% |
| Cc1ccc(-n2nc(C(C)(C)C)cc2CC2COC(C)(C(=O)NO)OC2)cc1 (stereo not drawn) [Example 99, N-(hydroxy)-5-c-((3-(tert-butyl)-1-(p-tolyl)-1H-pyrazol-5-yl)methyl)-2-methyl-1,3-dioxane-2-carboxamide] | 32% | – | 5% | – |
| Cc1oc(-c2ccccc2)nc1CC1COC(C)(C(=O)NCC(=O)N2CCOCC2)OC1 (stereo not drawn) [Example 18, 2-methyl-5-((5-methyl-2-phenyloxazol-4-yl)methyl)-N-(2-morpholino-2-oxoethyl)-1,3-dioxane-2-carboxamide] | – | – | – | inhibition at 1 µM (Concentration 1 μM): 40%; inhibition at 100 µM (Concentration 100 μM): 39% |
| Cc1oc(-c2ccncc2)nc1CC1COC(C)(C(=O)N2CCOCC2)OC1 (stereo not drawn) [Example 82, (2-methyl-5-c-((5-methyl-2-(pyridin-4-yl)oxazol-4-yl)methyl)-1,3-dioxan-2-yl)(morpholino)methanone] | 42% | – | – | % Inhibition PCSK9 (Concentration 1 μM, 1 µM): 13%; % Inhibition PCSK9 (Concentration 10 μM, 10 µM): 20% |
| Cc1ccc(-c2nc(CC3COC(C)(C(=O)N4CCOCC4)OC3)c(C)o2)cc1 (stereo not drawn) [Example 67, (2-methyl-5-t-((5-methyl-2-(p-tolyl)oxazol-4-yl)methyl)-1,3-dioxan-2-yl)(morpholino)methanone] | – | 25% | – | % Inhibition PCSK9 (Concentration 1 μM, 1 µM): 3%; % Inhibition PCSK9 (Concentration 10 μM, 10 µM): 21% |
| Cc1oc(-c2ccccc2)nc1CCC1COC(C)(C(=O)NO)OC1 (stereo not drawn) [Example 36, N-hydroxy-2-methyl-5t-(2-(5-methyl-2-phenyloxazol-4-yl)ethyl)-1,3-dioxane-2-carboxamide] | – | 24% | – | % Inhibition PCSK9 (Concentration 1 μM, 1 µM): 10% |
| Cc1oc(-c2ccccc2)nc1CCC1COC(C)(C(=O)NCC2CCOCC2)OC1 (stereo not drawn) [Example 38, 2-methyl-5-c-(2-(5-methyl-2-phenyloxazol-4-yl)ethyl)-N—((tetrahydro-2H-pyran-4-yl)methyl)-1,3-dioxane-2-carboxamide] | 21% | – | 14% | – |
